Reference: ChEMBL document CHEMBL1147532, “The design, preparation and SAR of novel small molecule sodium (Na(+)) channel blockers” (Bioorg Med Chem Lett, 2004)

Assays:
Cytochrome P450 2D6 = Cytochrome P450 2D6 (Homo sapiens, UniProt P10635); assay: Predictive competitive inhibition of cytochrome P450 2D6 was determined in silico
[1] = target: T1, Sodium channel alpha subunits; brain (Types I, II, III) (Rattus norvegicus, UniProt P04775+P04774+P08104); assay: In vitro inhibition of [3H]batrachotoxin binding to neurotoxin site 2 of sodium (Na+) channel in rat cerebral cortex membrane; type: cell membranes
CYP2D6 [2] = target: T2, CYP2D6 (Homo sapiens, UniProt P10635); assay: (§1) Inhibition of cytochrome P450 2D6 at 2 uM
T2 sequence (P10635 whole entry): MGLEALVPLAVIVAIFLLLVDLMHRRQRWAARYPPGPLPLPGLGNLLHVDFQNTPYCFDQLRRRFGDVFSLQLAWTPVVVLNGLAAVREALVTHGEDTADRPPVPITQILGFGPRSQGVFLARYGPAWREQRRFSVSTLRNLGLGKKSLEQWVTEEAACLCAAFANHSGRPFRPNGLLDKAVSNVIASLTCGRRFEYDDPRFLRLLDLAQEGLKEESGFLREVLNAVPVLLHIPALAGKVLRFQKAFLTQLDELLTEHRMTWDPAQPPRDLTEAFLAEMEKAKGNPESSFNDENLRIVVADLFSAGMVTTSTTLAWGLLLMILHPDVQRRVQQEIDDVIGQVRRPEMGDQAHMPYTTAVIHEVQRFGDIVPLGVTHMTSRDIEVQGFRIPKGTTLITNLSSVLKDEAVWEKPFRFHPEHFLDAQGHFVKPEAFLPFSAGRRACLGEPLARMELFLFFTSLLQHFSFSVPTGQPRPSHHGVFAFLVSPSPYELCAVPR

CYP3A4 = CYP3A4 (Homo sapiens, UniProt P08684); assay: Inhibition of cytochrome P450 3A4 was determined at 2 uM
Sequence of CYP3A4 (P08684 whole entry): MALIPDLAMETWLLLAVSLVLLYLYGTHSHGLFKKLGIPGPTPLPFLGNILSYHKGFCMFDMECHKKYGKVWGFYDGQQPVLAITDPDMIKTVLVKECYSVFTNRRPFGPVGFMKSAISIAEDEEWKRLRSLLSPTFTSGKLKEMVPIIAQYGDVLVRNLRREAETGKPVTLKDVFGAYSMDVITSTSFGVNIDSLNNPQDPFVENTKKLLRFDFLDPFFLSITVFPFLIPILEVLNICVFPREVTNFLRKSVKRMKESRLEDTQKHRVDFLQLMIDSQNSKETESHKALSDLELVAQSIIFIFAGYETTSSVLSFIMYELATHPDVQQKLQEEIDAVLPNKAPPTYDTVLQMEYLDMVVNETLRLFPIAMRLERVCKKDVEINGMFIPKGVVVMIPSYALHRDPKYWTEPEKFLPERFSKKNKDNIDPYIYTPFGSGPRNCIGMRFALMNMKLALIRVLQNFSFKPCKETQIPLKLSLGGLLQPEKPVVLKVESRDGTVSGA

Rattus norvegicus [3] = organism: Rattus norvegicus; assay: Inhibition of tetrodotoxin (TTX) sensitive current by the compound was determined at 10 uM using whole-cell patch clamp tests in cultured rat dorsal root ganglion (DRG); type: functional
CYP2D6 [4] = target: T2, CYP2D6; assay: as §1; type: ADME
Rattus norvegicus [5] = organism: Rattus norvegicus; assay: Inhibition of tetrodotoxin (TTX) resistant current by the compound was determined at 10 uM using whole-cell patch clamp tests in cultured rat dorsal root ganglion (DRG); type: functional
[6] = target: T1, Sodium channel alpha subunits; brain (Types I, II, III); assay: Inhibitory concentration against [3H]batrachotoxin binding to neurotoxin site 2 of sodium (Na+) channel in vitro in rat cerebral cortex membrane at 1 uM; type: cell membranes

Sequence of Cytochrome P450 2D6 (P10635 whole entry): as the sequence (P10635 whole entry) above

SMILES	Ki (Cytochrome P450 2D6)	IC50 [1]	inhibition at 2 µM (CYP2D6 [2])	inhibition at 2 µM (CYP3A4)	Inhibition (Rattus norvegicus [3])	inhibition at 2 µM (CYP2D6 [4])	Inhibition (Rattus norvegicus [5])	IC50 [6]
COc1ccc(CNC(=O)C(c2ccc(C(F)(F)F)cc2)N2CCN(CC(O)COc3c(C)cccc3C)CC2)cc1 (stereo unspecified)	2 µM	355 nM	8%	62%				
COc1ccc(OCC(O)CN2CCN(C(C(=O)NCc3ccccc3)c3ccc(C)cc3)CC2)cc1 (stereo unspecified)	4 µM	579 nM	10%	65%				
Cc1cccc(C)c1OCC(O)CN1CCN(C(C(=O)NCc2ccccc2)c2ccc(F)cc2)CC1 (stereo unspecified)	2 µM	149 nM	20%	38%				
C=CCOCC(O)CN1CCN(C(c2ccccc2)c2ccc(Cl)cc2)CC1 (stereo unspecified)	0.1 µM	401 nM			20%	87%		
COc1ccc(OCC(O)CN2CCN(C(C(=O)NCc3ccccc3)c3ccc(C(F)(F)F)cc3)CC2)cc1 (stereo unspecified)	2 µM	429 nM	13%	68%				
OC(COc1ccccc1)CN1CCN(C(c2ccccc2)c2ccc(C(F)(F)F)cc2)CC1 (stereo unspecified)	0.6 µM	893 nM	87%		61%		57%	
O=C(NCC(c1ccccc1)N1CCN(CC(O)COc2ccccc2)CC1)c1ccc(F)cc1 (stereo unspecified)	7 µM	363 nM	9%	61%				
Cc1ccc(C(C(=O)NCc2ccccc2)N2CCN(CC(O)COc3c(C)cccc3C)CC2)cc1 (stereo unspecified)	2 µM	325 nM	26%	44%				
COc1ccc(CNC(=O)C(c2ccc(C(F)(F)F)cc2)N2CCN(CC(O)COc3ccc(OC)cc3)CC2)cc1 (stereo unspecified)	4 µM	359 nM	0%	88%				
COc1ccc(OCC(O)CN2CCN(C(C(=O)NCc3ccccc3)c3ccc(F)cc3)CC2)cc1 (stereo unspecified)	5 µM	254 nM	0%	49%				
COc1ccc(C(=O)NCC(c2ccccc2)N2CCN(CC(O)COc3ccc(Cl)cc3)CC2)cc1 (stereo unspecified)	4 µM	538 nM	47%	96%				
COc1ccc(CNC(=O)C(c2ccc(OC)cc2)N2CCN(CC(O)COc3c(C)cccc3C)CC2)cc1 (stereo unspecified)	5 µM	571 nM	9%	74%				
COc1ccc(OCC(O)CN2CCN(C(CNC(=O)c3ccc(F)cc3)c3ccccc3)CC2)cc1 (stereo unspecified)	3 µM	531 nM	33%	22%				
COc1ccc(CNC(=O)C(c2ccc(F)cc2)N2CCN(CC(O)COc3ccc(OC)cc3)CC2)cc1 (stereo unspecified)	7 µM	214 nM	10%	81%				
COc1ccc(OC)c(S(=O)(=O)NCC(c2ccccc2)N2CCN(CC(O)COc3ccc(Br)cc3)CC2)c1 (stereo unspecified)	30 µM	522 nM	25%	100%				
COc1ccc(OCC(O)CN2CCN(C(CNC(=O)c3ccccc3OC)c3ccccc3)CC2)cc1 (stereo unspecified)	8 µM	721 nM	9%	93%				
COc1ccc(CNC(=O)C(c2ccc(C)cc2)N2CCN(CC(O)COc3c(C)cccc3C)CC2)cc1 (stereo unspecified)	3 µM	351 nM	14%	74%				
O=S(=O)(NCC(c1ccc(C(F)(F)F)cc1)N1CCN(CC(O)COc2ccc(F)cc2)CC1)c1ccccc1Cl (stereo unspecified)	10 µM		56%	92%				76 nM
COc1ccc(OCC(O)CN2CCN(C(CNC(=O)c3ccc(OC)cc3)c3ccccc3)CC2)cc1 (stereo unspecified)	8 µM	871 nM	12%	95%				
Cc1cccc(S(=O)(=O)NCC(c2ccc(C(F)(F)F)cc2)N2CCN(CC(O)COc3ccc(Br)cc3)CC2)c1 (stereo unspecified)	10 µM		27%	76%				95 nM
